Results from patent publication US20110250134A1, “SUSTAINED RELEASE NITRIC OXIDE FROM LONG LIVED CIRCULATING NANOPARTICLES” (priority 2010, published 2011).

Assay: Total NO released (NO agents decomposition)
Type: physicochemical
Experimental: Total NO released (NO agents decomposition). Gaseous NO levels were measured using a chemiluminescent NO analyzer (Sievers NO analyzer, Model 280i, Boulder, Colo.). […] Solutions were continuously bubbled with pure nitrogen (0.2 L/min). The gas phase was collected into the NO analyzer for a minute every 10 min., and the excess flow was evacuated through an underwater seal (1 cm H2O).

| NO liberated experimentally | SMILES |
| --- | --- |
| 10.7 μmols of NO/mg | NCCN(CCN)/[N+]([O-])=N/O [DETA NONOate, Diethylenetriamine NONOate] |
| 9.4 µmol/mg | NCCCN(CCCN)/[N+]([O-])=N/O [DPTA NONOate, Dipropylenetriamine NONOate] |
